These molecules were tested against T1, USP7 (Homo sapiens, UniProt Q93009) (assay: USP7 biochemical IC50 assay (fluorescence polarisation, TAMRA labelled peptide linked to ubiquitin via an iso-peptide bond)). Details: 30 min pre-incubation of enzyme and compound, read after 2 hr incubation at room temperature, read-out: IC50 range.
T1 construct: The USP7 construct was PCR amplified and cloned into a pFLAG-CMV-6a vector (Sigma-Aldrich) with an N-terminal FLAG tag; made in house; host or cells: HEK293T
Description: In Vitro USP7 Inhibition Assay
Expression and Purification of USP7
The USP7 construct was PCR amplified and cloned into a pFLAG-CMV-6a vector (Sigma-Aldrich) with an N-terminal FLAG tag. HEK293T cells were transfected with FLAG-USP7 using TransIT-LT1 transfection reagent (Mirus) according to the manufacturer's instructions. Cells were harvested 40 hours after transfection. […] The resin was washed two times with low salt buffer plus protease inhibitors (complete mini, Roche) and phosphatase inhibitors (PhosSTOP mini, Roche) and one time with high salt buffer (20 mM Tris, pH 7.5, 500 mM NaCl, 0.5 mM EDTA, 5 mM beta-mercaptoethanol, protease inhibitors (complete mini, Roche) and phosphatase inhibitors (PhosSTOP mini, Roche). To elute the bound USP7, elution buffer (10 mM Tris, pH 7.5, 150 mM NaCl, 0.5 mM EDTA, 10% glycerol, 0.5% NP40, 5 mM beta-mercaptoethanol, 0.15 mg/ml 3×FLAG peptide (Sigma-Aldrich)) was added to the resin and incubated at 4° C. for 2.5 hours rotating. The resin was centrifuged at 4000 rpm for 30 seconds, and the supernatant containing purified FLAG-USP7 was removed and stored at −80° C.
USP7 Biochemical IC50 Assay
A typical 8-point dilution series would be 100, 30, 10, 3, 1, 0.3, 0.1, 0.03 μM final. […] Either 1 μl of 50% DMSO or diluted compound was added to the plate. USP7 was diluted in reaction buffer (20 mM Tris, pH 7.5, 100 mM NaCl, 0.05% Tween 20, 0.5 mg/ml BSA, 5 mM—beta mercaptoethanol) to the equivalent of 0.0025 μl/well and 10 μl of diluted USP7 was added to the compound. Enzyme and compound were incubated for 30 min at room temp. Reactions were initiated by the addition of 50 nM of TAMRA labelled peptide linked to ubiquitin via an iso-peptide bond as fluorescence polarisation substrate. Reactions were read immediately after addition of substrate and following a 2 hr incubation at room temperature. Readings were performed on a Pherastar Plus (BMG Labtech). λ Excitation 540 nm; λ Emission 590 nm.

T1 sequence (Q93009 whole entry): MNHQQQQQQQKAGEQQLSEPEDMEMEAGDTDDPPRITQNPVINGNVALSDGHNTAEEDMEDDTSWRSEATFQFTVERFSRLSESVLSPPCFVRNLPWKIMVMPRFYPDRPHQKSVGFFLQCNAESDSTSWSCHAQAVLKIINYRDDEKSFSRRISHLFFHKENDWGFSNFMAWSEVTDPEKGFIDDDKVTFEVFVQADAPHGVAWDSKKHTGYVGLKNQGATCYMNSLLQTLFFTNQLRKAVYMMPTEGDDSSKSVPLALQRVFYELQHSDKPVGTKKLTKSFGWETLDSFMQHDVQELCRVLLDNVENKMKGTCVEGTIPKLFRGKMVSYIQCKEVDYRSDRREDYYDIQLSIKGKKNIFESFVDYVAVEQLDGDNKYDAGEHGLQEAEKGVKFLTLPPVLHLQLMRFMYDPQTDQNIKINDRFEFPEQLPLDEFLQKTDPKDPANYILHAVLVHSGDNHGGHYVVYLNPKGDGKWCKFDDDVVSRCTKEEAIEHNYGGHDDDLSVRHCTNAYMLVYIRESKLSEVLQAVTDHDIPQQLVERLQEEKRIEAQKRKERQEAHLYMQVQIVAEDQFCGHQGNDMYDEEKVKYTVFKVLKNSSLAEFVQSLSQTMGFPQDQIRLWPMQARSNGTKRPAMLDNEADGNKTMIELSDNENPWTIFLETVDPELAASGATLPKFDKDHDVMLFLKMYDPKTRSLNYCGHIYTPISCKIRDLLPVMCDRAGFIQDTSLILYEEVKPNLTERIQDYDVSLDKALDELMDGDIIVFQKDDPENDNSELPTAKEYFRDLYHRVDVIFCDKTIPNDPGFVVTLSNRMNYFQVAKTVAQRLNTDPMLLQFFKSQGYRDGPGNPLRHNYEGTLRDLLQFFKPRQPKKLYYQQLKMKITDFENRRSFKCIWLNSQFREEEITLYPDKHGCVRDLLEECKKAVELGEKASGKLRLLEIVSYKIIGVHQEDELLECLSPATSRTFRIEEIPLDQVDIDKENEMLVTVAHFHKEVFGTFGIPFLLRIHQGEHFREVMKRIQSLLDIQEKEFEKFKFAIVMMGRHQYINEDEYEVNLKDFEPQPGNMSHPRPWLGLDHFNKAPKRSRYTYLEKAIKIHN

Row | IC50 | Compound
1 | < 1 µM | CN1CCC[C@@H](C(=O)Nc2cc3c(c(-c4ccccc4)c2)CN(C#N)C3)C1 [Example 38, (R)—N-(2-cyano-7-phenylisoindolin-5-yl)-1-methylpiperidine-3-carboxamide]
2 | 1 to 10 µM | Cn1nccc1C(=O)Nc1cc2c(c(-c3ccccc3)c1)CN(C#N)C2 [Example 39, N-(2-cyano-7-phenylisoindolin-5-yl)-1-methyl-1H-pyrazole-5-carboxamide]
3 | 1 to 10 µM | N#CN1Cc2cc(NC(=O)C3CN(Cc4ccccc4)CCO3)cc(-c3ccccc3)c2C1 (stereo not drawn) [Example 40, 4-benzyl-N-(2-cyano-7-phenylisoindolin-5-yl)morpholine-2-carboxamide]
4 | 1 to 10 µM | N#CN1Cc2cc(NC(=O)CCc3cccnc3)cc(-c3ccccc3)c2C1 [Example 41, N-(2-cyano-7-phenylisoindolin-5-yl)-3-(pyridin-3-yl)propanamide]
5 | < 1 µM | N#CN1Cc2cc(NC(=O)C3CNC(=O)C3)cc(-c3ccccc3)c2C1 (stereo not drawn) [Example 42, N-(2-cyano-7-phenylisoindolin-5-yl)-5-oxopyrrolidine-3-carboxamide]
6 | 30 to 100 µM | CN1CCC(C(=O)Nc2cc3c(c(-c4ccccc4)c2)CN(C#N)C3)C1 (stereo not drawn) [Example 43, N-(2-cyano-7-phenyl-isoindolin-5-yl)-1-methylpyrrolidine-3-carboxamide]
7 | < 1 µM | CN1CC(C(=O)Nc2cc3c(c(-c4ccccc4)c2)CN(C#N)C3)CCC1=O (stereo not drawn) [Example 44, N-(2-cyano-7-phenylisoindolin-5-yl)-1-methyl-6-oxopiperidine-3-carboxamide]
8 | 1 to 10 µM | CC(=O)N1CCCC(C(=O)Nc2cc3c(c(-c4ccccc4)c2)CN(C#N)C3)C1 (stereo not drawn) [Example 45, 1-acetyl-N-(2-cyano-7-phenylisoindolin-5-yl)piperidine-3-carboxamide]
9 | 1 to 10 µM | CN(C)C(=O)CCC(=O)Nc1cc2c(c(-c3ccccc3)c1)CN(C#N)C2 [Example 46, N1-(2-cyano-7-phenylisoindolin-5-yl)-N4,N4-dimethylsuccinamide]
10 | < 1 µM | CC(=O)N1CCC(C(=O)Nc2cc3c(c(-c4ccccc4)c2)CN(C#N)C3)CC1 [Example 47, 1-acetyl-N-(2-cyano-7-phenylisoindolin-5-yl)piperidine-4-carboxamide]
11 | < 1 µM | CN1CCC(C(=O)Nc2cc3c(c(-c4ccccc4)c2)CN(C#N)C3)CC1 [Example 48, N-(2-cyano-7-phenylisoindolin-5-yl)-1-methylpiperidine-4-carboxamide]
12 | < 1 µM | CN(C)CC(=O)Nc1cc2c(c(-c3ccccc3)c1)CN(C#N)C2 [Example 49]
13 | < 1 µM | N#CN1Cc2cc(NC(=O)C3CCOCC3)cc(-c3ccccc3)c2C1 [Example 50, N-(2-cyano-7-phenylisoindolin-5-yl)tetrahydro-2H-pyran-4-carboxamide]
14 | < 1 µM | CN1CC(C(=O)Nc2cc3c(c(-c4ccccc4)c2)CN(C#N)C3)CC1=O (stereo not drawn) [Example 52, N-(2-cyano-7-phenylisoindolin-5-yl)-1-methyl-5-oxopyrrolidine-3-carboxamide]
15 | < 1 µM | CN1CCOC(C(=O)Nc2cc3c(c(-c4ccccc4)c2)CN(C#N)C3)C1 (stereo not drawn) [Example 53, N-(2-cyano-7-phenylisoindolin-5-yl)-4-methylmorpholine-2-carboxamide]
16 | < 1 µM | CCN1CCOC(C(=O)Nc2cc3c(c(-c4ccccc4)c2)CN(C#N)C3)C1 (stereo not drawn) [Example 54, N-(2-cyano-7-phenylisoindolin-5-yl)-4-ethylmorpholine-2-carboxamide]
17 | < 1 µM | CC(C)N1CCOC(C(=O)Nc2cc3c(c(-c4ccccc4)c2)CN(C#N)C3)C1 (stereo not drawn) [Example 55, N-(2-cyano-7-phenylisoindolin-5-yl)-4-isopropylmorpholine-2-carboxamide]
18 | 1 to 10 µM | CN1CCCC(C(=O)Nc2cc3c(c(-c4ccccc4C(N)=O)c2)CN(C#N)C3)C1 (stereo not drawn) [Example 56, N-(7-(2-carbamoylphenyl)-2-cyanoisoindolin-5-yl)-1-methylpiperidine-3-carboxamide]

Row | IC50 | Compound
19 | 1 to 10 µM | CC(=O)Nc1cc2c(c(-c3ccccc3)c1)CN(C#N)C2 [Example 57]
20 | 1 to 10 µM | CC(=O)N(C)c1cc2c(c(-c3ccccc3)c1)CN(C#N)C2 [Example 58, N-(2-cyano-7-phenylisoindolin-5-yl)-N-methylacetamide]
21 | 1 to 10 µM | CN1CCCC(C(=O)N(C)c2cc3c(c(-c4ccccc4)c2)CN(C#N)C3)C1 (stereo not drawn) [Example 59, N-(2-cyano-7-phenylisoindolin-5-yl)-N,1-dimethylpiperidine-3-carboxamide]
22 | < 1 µM | CN1CCN(C(=O)Nc2cc3c(c(-c4ccccc4)c2)CN(C#N)C3)CC1 [Example 60, N-(2-cyano-7-phenylisoindolin-5-yl)-4-methylpiperazine-1-carboxamide]
23 | 1 to 10 µM | CS(=O)(=O)Nc1cc2c(c(-c3ccccc3)c1)CN(C#N)C2 [Example 61, N-(2-cyano-7-phenylisoindolin-5-yl)methanesulfonamide]
24 | < 1 µM | N#CN1Cc2cc(NC(=O)C3CCCNC3)cc(-c3ccccc3)c2C1 (stereo not drawn) [Example 62, N-(2-cyano-7-phenylisoindolin-5-yl)piperidine-3-carboxamide]
25 | 1 to 10 µM | N#CN1Cc2cc(NC(=O)C3CCNCC3)cc(-c3ccccc3)c2C1 [Example 63, N-(2-cyano-7-phenylisoindolin-5-yl)piperidine-4-carboxamide]
26 | < 1 µM | CN1CCCC(CNc2cc3c(c(-c4ccccc4)c2)CN(C#N)C3)C1 (stereo not drawn) [Example 64, 6-(((1-methylpiperidin-3-yl)methyl)amino)-4-phenylisoindoline-2-carbonitrile]
27 | 1 to 10 µM | N#Cc1ccc(-c2cccc3c2CN(C#N)C3)c(Cl)c1 [Example 65, 4-(2-chloro-4-cyanophenyl)isoindoline-2-carbonitrile]
28 | 1 to 10 µM | Cc1cc(C#N)ccc1-c1cccc2c1CN(C#N)C2 [Example 66, 4-(4-cyano-2-methylphenyl)isoindoline-2-carbonitrile]
29 | 1 to 10 µM | Cc1cc(C#N)cc(C)c1-c1cccc2c1CN(C#N)C2 [Example 67, 4-(4-cyano-2,6-dimethylphenyl)isoindoline-2-carbonitrile]
30 | 1 to 10 µM | N#CN1Cc2cccc(-c3cccc4c3C(=O)NC4)c2C1 [Example 68, 3-oxo-[4,4′-biisoindoline]-2′-carbonitrile]
31 | 1 to 10 µM | N#CN1Cc2cccc(-c3cccc4c3C(=O)NCC4)c2C1 [Example 69, 4-(1-oxo-1,2,3,4-tetrahydroisoquinolin-8-yl)isoindoline-2-carbonitrile]
32 | 1 to 10 µM | C[C@@H](O)c1ccccc1-c1cccc2c1CN(C#N)C2 [Example 70, (R)-4-(2-(1-hydroxyethyl)phenyl)isoindoline-2-carbonitrile]
33 | 1 to 10 µM | C[C@H](O)c1ccccc1-c1cccc2c1CN(C#N)C2 [Example 71, (S)-4-(2-(1-hydroxyethyl)phenyl)isoindoline-2-carbonitrile]
34 | < 1 µM | N#Cc1ccc(-c2cccc3c2CN(C#N)C3)c(C#N)c1 [Example 72, 4-(2-cyanoisoindolin-4-yl)isophthalonitrile]
35 | 1 to 10 µM | N#CN1Cc2cccc(-c3cccc(C(=O)NCc4ccccc4)c3)c2C1 [Example 73, N-benzyl-3-(2-cyanoisoindolin-4-yl)benzamide]

Row | Compound | IC50
36 | N#CN1Cc2cc(NC(=O)C3CCS(=O)(=O)CC3)cc(-c3ccccc3)c2C1 [Example 51, N-(2-cyano-7-phenylisoindoin-5-yl)tetrahydro-2H-thiopyran-4-carboxamide 1,1-dioxide] | 1 to 10 µM
